From patent US8415453B2, “Lung cancer-targeted peptides and applications thereof” (Academia Sinica, priority 2007, dated 2013)
Where no end group is shown, it is not given here. The star is where a group is joined. FITC = O=C1OC2(c3ccc(O)cc3Oc3cc(O)ccc32)c2ccc(NC(=S)*)cc21

Key:
PC13 cells = experiment: Peptide-binding assay with FITC-labeled peptide, immunofluorescent staining; format: cell-based, human
Protocol: (§1) To investigate whether the synthetic peptide and the selected phage clone competed for the same binding site, a peptide-competitive inhibition assay was performed by immunofluorescent staining. Targeting peptide TDSILRSYDWTY (SP5-2) [SEQ ID NO: 2] and control peptide (RLLDTNRPLLPY) [SEQ ID NO: 22] were synthesized and purified by reverse-phase high-performance liquid chromatography to >95% purity by Invitrogene, Inc. (CA, USA). Conjugation of these peptides with FITC or biotin was performed by adding FITC or biotin to the peptide NH2 terminus by the same company.

A549 cells = experiment: as above; format: cell-based, human
Protocol: as §1

H460 cells = experiment: as above; format: cell-based, human
Protocol: as §1

H23 cells = experiment: as above; format: cell-based, human
Protocol: as §1

CL1-5 cells [1] = experiment: as above; format: cell-based, human
Protocol: as §1

CL1-5-derived tumors = experiment: In vivo tumor homing, phage titers recovered from tumor and organs; set-up: species or system SCID mice; conditions: for effect of co-injected peptide on recovery of PC5-2 from tumor mass: co-injection of 100 μg peptide
Protocol: (§2) To investigate the targeting ability of PC5-2 in vivo, phages were injected into the tail vein of mice bearing CL1-5-derived tumors and recovered after perfusion. SCID mice were injected subcutaneously into the dorsolateral flank with 1×10^7 cancer cells. The mice bearing size-matched lung cancer-derived tumor (tumor sizes about 500 mm3) were injected with targeting phage or control phage through the tail vein. Eight minutes after injection, the mice were treated with diethyl ether to drive them into deep anesthesia. Then the mice were perfused with 50 ml PBS to wash unbound phage. The control organs (brain, heart, and lung) and tumor mass were removed, weighed, and washed three times with cold PBS-PI (protease inhibitor cocktail tablet; Roche, Germany). The organ and tumor samples were homogenized. Then, the phage bound to the tumor mass or control organs were rescued by adding 0.5 ml ER2738 bacterial for 30 minutes at 37° C. The eluted phage particles were titered on agar plates in the presence of 1 mg/L of IPTG/X-Gal. In peptide competitive inhibition experiments, the phages were co-injected with 100 μg of synthetic peptide. We also used the control peptide. The organs and tumor masses were fixed in Bouin's solution for 2 h. After fixation, the samples were embedded in paraffin blocks. The paraffin sections were deparaffinized, rehydrated and subjected to immunostaining using M13 monoclonal antibody, as mentioned above.

CL1-5 cells [2] = experiment: Peptide-competitive inhibition assay by immunofluorescent staining; format: cell-based, human
Protocol: as §1
Phages were mixed with different concentrations of synthetic peptides and incubated with cells at 4° C. for 1 h. The slides were further incubated with mouse anti-M13 monoclonal antibody (Amersham Biosciences, Uppsala, Sweden), followed by incubation with FITC-labeled goat anti-mouse antibody (Jackson ImmunoResearch). The slides were washed and mounted with mounting medium (Vector, Calif., USA). Then the slides were examined under a Leica Universal microscope. The images were merged by SimplePCI (C-IMAGING, PA, USA) software.

CL1-5 cells [3] = experiment: Flow cytometry of phage-bound cells; format: cell-based, human; conditions: peptide competitive inhibition
Protocol: Furthermore, to investigate the target molecule expressed on the cell surface of CL1-5, we measured PC5-2-bound cells using flow cytometry. Lung and other cancer cell lines were cultured overnight and then suspended in PBS containing 50 mM EDTA and blocked with blocking buffer at 4° C. for 30 minutes. The cells were washed 2 times with flow buffer (PBS containing 1% fetal bovine serum). The cells were incubated with phages or FITC-labeled peptide. For the peptide competitive inhibition assay, the phages were mixed with different concentrations of synthetic peptides and the mixture was incubated with the cells. After washing two times with cold flow buffer, the phage-bound cells were incubated with anti-M13 monoclonal antibodies at 4° C. for 1 h and then treated with FITC-conjugated goat anti-mouse IgG antibody. The cells were washed two times with cold flow buffer and then applied to a flow cytometer (Becton Dickinson).

NSCLC xenografts = experiment: In vivo tissue distribution of phage by immunostaining; set-up: species or system SCID mice; conditions: in vivo homing
Protocol: as §2, with “The paraffin sections were deparaffinized, rehydrated and subjected to immunostaining using M13 monoclonal antibody, as mentioned above.” left out

Row | Substance | binding of FITC-labeled peptide to cells (PC13 cells) | binding of FITC-labeled peptide to cells (A549 cells) | binding of FITC-labeled peptide to cells (H460 cells) | binding of FITC-labeled peptide to cells (H23 cells) | binding of FITC-labeled peptide to cells (CL1-5 cells [1]) | effect of co-injected peptide on recovery of PC5-2 from tumor mass (CL1-5-derived tumors) | effect of synthetic peptide on binding of PC5-2 phage to CL1-5 cells (CL1-5 cells [2]) | effect of peptide on phage bound to CL1-5 cells (CL1-5 cells [3]) | inhibition of PC5-2 binding to tumor mass (CL1-5-derived tumors; co-injection of one hundred micrograms of peptide) | peptide concentration able to inhibit the PC5-2 binding activity completely (CL1-5 cells [2]; CL1-5) | effect of peptide on targeting of PC5-2 to NSCLC xenograft (NSCLC xenografts)
1 | FITC-labeled control peptide: control peptide RLLDTNRPLLPY with FITC at the NH2 terminus ({FITC}-RLLDTNRPLLPY) | no such binding activity | no such binding activity | no such binding activity | no such binding activity | no such binding activity | – | – | – | – | – | –
2 | RLLDTNRPLLPY [control peptide] | – | – | – | – | – | no such inhibitory effect | no such effect | – | – | – | –
3 | TDSILRSYDWTY [SP5-2] | – | – | – | – | – | markedly inhibited | inhibited | completely inhibited | 92% | 27 µg/mL | inhibited
